Measured values: US20200370102A1, “BIOMARKER INDICATING RESPONSE TO POZIOTINIB THERAPY FOR CANCER” (HANMI PHARM. CO., LTD., priority 2017, published 2020)

Experiments:
[1] = system: EGFR family including Her1, Her2, and Her4; conditions: cited from earlier work
[2] = system: transplanted tumor cells; conditions: xenotransplantation animal model; cited from earlier work
[3] = system: cancer cells having overexpression of Her1 or Her2 or activated mutations; conditions: in vitro, various carcinomas; cited from earlier work
[4] = system: HER2-positive metastatic breast cancer; experiment: open-label, multicenter study of poziotinib monotherapy in breast cancer patients, with genotype (NGS) analysis; assay type: in vivo, human
Method: Poziotinib is a pan-HER inhibitor small molecule breast cancer therapeutic agent under clinical development. […] Recently, through an open-label, multicenter, two-phase study of poziotinib monotherapy, it was evaluated whether poziotinib was an option for breast cancer patients with HER2-positive metastatic breast cancer who twice or more experienced the failure of 2 HER2 target treatments. The genetic profile of HER2-positive metastatic breast cancer was evaluated, and the potential biomarkers of poziotinib for HER2-positive metastatic breast cancer (MBC) were investigated.
The experimental method is as follows. All participants with MBC were diagnosed with HER2-positive metastatic breast cancer according to the American Society of Clinical Oncology/College of-American Pathologist Her2 guideline. Fresh tissue samples or FFPE samples were obtained from these patients and used to extract DNA and RNA for next generation sequencing (NGS).
DNA and RNA were extracted from the samples and NGS was performed thereon. Targeted deep sequencing was performed by using a customized 381 cancer gene panel (CancerSCAN™, Samsung Hospital, Inc.) and the correlation among sequencing data, immunohistochemistry, and clinical outcome was analyzed.
An effective amount of poziotinib was administered to the breast cancer patients. The prognosis of the patients was observed. Prognosis was classified into partial remission (PR), stable disease (SD), and progressive disease (PD). For each patient, progressive free survival (PFS) was also identified.
From April 2015 to February 2016, 106 patients enrolled for clinical trials. Biomarker data were available for 75 of these patients.

[5] = system: lung cancer cells resistant to gefitinib or erlotinib; conditions: cited from earlier work
[6] = among the 75 patients with biomarker data

C=CC(=O)N1CCC(Oc2cc3c(Nc4ccc(Cl)c(Cl)c4F)ncnc3cc2OC)CC1 [Poziotinib, 1-[4-[4-(3,4-dichloro-2-fluoroanilino)-7-methoxyquinazolin-6-yl]oxypiperidin-1-yl]prop-2-en-1-one]
inhibition of the EGFR family [1]: selectively and irreversibly inhibits | tumor growth [2]: effectively blocks tumor growth | growth of cancer cells [3]: inhibits the growth of cancer cells | prognosis after poziotinib by genotype ([4]; BARD1 gene mutation present (mutation number=9)): poor prognosis | prognosis after poziotinib by genotype ([4]; CDK12 copy number amplification (42 subjects)): good prognosis | prognosis after poziotinib by genotype ([4]; ERBB3 gene mutation present (mutation number=10)): poor prognosis | prognosis after poziotinib by genotype ([4]; NOTCH gene mutation present (mutation number=13)): good prognosis | prognosis after poziotinib by genotype ([4]; PIK3CA gene mutation present (mutation number=34)): poor prognosis | prognosis after poziotinib by genotype ([4]; SETBP1 gene mutation present (mutation number=13)): poor prognosis | prognosis after poziotinib by genotype ([4]; SH2B3 gene mutation present (mutation number=6)): good prognosis | number of patients with partial remission (PR) [4, 6]: 14 | number of patients with progressive disease (PD) [4, 6]: 20 | prognosis after poziotinib by genotype ([4]; copy number amplification of the ERBB2 gene): good prognosis | prognosis after poziotinib by genotype ([4]; copy number deletion of the BRCA1 gene): bad prognosis | prognosis after poziotinib by genotype ([4]; copy number deletion of the STAT3 gene): bad prognosis | prognosis after poziotinib by genotype ([4]; deletion or amplification of the FGFR3 gene (copy number variations=5)): bad prognosis | prognosis of patients with ERBB2 gene or upstream mutations ([4]; patients 1 to 10 of the 13 patients with ERBB2 mutations, FIG. 13): partial remission and stable disease | growth of lung cancer cells [5]: effectively inhibits the growth
